Assay results as given in PMC11785709, “Angelica gigas Nakai (Korean Dang-gui) Root Alcoholic Extracts in Health Promotion and Disease Therapy – active Phytochemicals and In Vivo Molecular Targets” (Pharmaceutical Research, 2025).
Values joined by “and” are separate entries in the source; they are usually repeats but may differ in a detail not shown here. Identical values can stand only once.

Tests used:
Experiment in all cases: Reaction Biology kinase activity inhibition
Assay type in all cases: biochemical
JNK2 = target: T1, JNK2 (Homo sapiens, UniProt P45984); conditions: initial screening
T1 construct: purchased Reaction Biology
T1 sequence (P45984 whole entry): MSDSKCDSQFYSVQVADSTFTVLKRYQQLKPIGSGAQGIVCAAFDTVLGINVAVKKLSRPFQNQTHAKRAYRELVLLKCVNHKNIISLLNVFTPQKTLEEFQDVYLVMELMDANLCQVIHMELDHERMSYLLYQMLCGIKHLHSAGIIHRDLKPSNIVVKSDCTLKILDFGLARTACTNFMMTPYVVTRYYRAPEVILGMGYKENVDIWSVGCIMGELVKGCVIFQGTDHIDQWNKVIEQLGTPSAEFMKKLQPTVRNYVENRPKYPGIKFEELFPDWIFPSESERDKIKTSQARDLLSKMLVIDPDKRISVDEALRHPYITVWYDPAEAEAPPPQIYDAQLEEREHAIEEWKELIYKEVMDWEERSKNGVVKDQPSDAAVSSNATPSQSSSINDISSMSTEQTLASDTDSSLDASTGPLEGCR
Source text: (§1) The second screening was the Reaction Biology® (Malvern, PA) kinase activity inhibition tests, which screened for more than 600 protein kinases and lipid kinases, using miniaturized radioisotope-based assay platform with γ-^33P-ATP, followed by confirmation with IC50 kinase profiling service with 5 concentrations of test compound (i.e., DOH and DA) with curve fitting.

LRRK2 (G2019S) = target: T2, LRRK2 (G2019S) (Homo sapiens, UniProt Q5S007, G2019S); conditions: initial screening
T2 construct: purchased Reaction Biology
Source text: as §1

BRSK1 = target: T3, BRSK1 (Homo sapiens, UniProt Q8TDC3); conditions: initial screening
T3 construct: purchased Reaction Biology
T3 sequence (Q8TDC3 1-778): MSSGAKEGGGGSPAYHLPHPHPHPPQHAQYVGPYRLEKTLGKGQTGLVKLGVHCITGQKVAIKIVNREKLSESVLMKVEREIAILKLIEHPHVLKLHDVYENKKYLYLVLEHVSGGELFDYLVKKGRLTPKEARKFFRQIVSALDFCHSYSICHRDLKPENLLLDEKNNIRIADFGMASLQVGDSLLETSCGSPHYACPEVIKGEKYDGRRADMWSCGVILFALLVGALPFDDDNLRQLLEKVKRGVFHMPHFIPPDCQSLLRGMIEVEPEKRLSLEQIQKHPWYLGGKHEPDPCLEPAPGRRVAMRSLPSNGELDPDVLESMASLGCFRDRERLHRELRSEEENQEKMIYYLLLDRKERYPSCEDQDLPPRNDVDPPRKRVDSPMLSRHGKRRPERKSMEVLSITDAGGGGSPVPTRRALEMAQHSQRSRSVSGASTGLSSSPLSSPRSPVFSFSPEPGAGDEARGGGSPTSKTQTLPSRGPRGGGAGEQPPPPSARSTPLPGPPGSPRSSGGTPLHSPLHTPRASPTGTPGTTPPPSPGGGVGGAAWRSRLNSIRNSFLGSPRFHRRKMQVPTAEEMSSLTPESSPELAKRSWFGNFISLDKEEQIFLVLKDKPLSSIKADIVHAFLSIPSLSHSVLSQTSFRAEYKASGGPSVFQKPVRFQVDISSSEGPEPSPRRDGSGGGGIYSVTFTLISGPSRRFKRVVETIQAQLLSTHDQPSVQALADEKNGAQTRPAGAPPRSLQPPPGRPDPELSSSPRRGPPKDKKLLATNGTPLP
Source text: as §1

MELK = target: T4, MELK (Homo sapiens, UniProt Q14680); conditions: initial screening
T4 construct: purchased Reaction Biology
T4 sequence (Q14680 whole entry): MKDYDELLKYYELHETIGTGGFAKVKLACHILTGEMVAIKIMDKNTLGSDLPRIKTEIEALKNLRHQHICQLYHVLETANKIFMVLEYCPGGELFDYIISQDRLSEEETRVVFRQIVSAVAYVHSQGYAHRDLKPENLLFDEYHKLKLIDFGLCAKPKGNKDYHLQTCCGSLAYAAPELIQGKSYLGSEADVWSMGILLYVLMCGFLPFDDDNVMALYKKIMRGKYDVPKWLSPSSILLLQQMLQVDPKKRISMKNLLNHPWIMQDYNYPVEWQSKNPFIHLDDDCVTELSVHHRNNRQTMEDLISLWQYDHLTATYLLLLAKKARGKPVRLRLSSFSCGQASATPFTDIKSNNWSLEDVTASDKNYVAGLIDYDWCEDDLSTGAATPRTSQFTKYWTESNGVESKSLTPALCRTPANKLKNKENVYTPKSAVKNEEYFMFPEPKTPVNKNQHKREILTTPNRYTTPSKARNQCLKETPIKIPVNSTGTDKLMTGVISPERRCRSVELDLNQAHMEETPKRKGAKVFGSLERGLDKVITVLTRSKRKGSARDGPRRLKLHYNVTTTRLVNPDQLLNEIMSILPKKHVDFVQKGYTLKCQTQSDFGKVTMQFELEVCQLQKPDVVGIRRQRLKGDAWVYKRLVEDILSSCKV
Source text: as §1

TYK2 = target: T5, TYK2 (Homo sapiens, UniProt P29597); conditions: initial screening
T5 construct: purchased Reaction Biology
T5 sequence (P29597 whole entry): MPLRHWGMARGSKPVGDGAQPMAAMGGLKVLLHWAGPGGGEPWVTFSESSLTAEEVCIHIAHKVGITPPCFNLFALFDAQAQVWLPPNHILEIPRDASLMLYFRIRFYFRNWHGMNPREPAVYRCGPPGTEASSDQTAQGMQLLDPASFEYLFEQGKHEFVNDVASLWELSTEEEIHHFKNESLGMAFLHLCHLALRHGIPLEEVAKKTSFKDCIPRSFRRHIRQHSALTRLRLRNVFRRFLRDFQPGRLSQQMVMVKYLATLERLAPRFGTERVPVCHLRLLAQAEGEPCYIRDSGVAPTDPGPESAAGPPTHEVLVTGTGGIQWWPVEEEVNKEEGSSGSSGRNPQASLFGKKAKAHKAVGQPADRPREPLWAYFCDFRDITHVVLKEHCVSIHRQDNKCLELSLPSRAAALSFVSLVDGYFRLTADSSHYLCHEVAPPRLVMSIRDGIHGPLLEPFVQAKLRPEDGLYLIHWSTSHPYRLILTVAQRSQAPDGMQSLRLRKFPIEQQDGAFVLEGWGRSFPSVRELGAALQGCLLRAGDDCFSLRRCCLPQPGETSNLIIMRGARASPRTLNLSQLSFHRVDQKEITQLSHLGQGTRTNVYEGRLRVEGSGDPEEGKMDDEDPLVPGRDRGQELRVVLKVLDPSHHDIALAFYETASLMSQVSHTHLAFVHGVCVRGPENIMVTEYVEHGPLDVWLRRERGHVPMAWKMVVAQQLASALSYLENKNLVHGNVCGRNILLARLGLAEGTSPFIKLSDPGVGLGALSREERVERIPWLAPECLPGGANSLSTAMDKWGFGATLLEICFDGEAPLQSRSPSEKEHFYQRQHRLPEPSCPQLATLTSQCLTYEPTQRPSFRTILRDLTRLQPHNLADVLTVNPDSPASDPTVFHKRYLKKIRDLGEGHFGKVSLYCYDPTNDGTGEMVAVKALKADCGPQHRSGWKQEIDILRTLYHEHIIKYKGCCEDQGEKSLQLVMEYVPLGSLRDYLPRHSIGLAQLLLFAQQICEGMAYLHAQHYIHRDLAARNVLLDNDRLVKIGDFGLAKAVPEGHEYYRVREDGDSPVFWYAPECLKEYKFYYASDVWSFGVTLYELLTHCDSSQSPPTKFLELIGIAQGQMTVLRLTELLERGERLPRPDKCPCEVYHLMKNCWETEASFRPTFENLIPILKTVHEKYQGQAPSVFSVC
Source text: as §1

ARK5/NUAK1 = target: T6, ARK5/NUAK1 (Homo sapiens, UniProt O60285); conditions: initial screening
T6 construct: purchased Reaction Biology
T6 sequence (O60285 1-661): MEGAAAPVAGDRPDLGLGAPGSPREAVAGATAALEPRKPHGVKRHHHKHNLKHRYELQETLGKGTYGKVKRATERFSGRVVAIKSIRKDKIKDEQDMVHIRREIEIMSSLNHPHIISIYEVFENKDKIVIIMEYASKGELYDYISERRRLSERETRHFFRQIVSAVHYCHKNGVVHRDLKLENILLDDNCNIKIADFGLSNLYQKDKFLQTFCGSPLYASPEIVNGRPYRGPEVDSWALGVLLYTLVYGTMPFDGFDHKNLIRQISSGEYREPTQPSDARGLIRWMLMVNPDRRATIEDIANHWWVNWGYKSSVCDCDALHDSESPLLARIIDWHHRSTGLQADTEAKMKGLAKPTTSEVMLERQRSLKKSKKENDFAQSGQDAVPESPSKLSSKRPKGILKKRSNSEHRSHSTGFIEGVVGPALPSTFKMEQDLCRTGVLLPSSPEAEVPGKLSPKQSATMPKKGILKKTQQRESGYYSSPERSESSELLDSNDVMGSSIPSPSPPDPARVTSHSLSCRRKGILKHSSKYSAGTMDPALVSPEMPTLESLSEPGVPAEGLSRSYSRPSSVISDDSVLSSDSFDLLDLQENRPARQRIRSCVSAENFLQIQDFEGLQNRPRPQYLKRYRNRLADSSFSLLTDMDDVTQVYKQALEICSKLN
Source text: as §1

PKCtheta = target: T7, PKCtheta (Homo sapiens, UniProt Q04759); conditions: initial screening
T7 construct: purchased Reaction Biology
Source text: as §1

STK32B/YANK2 = target: T8, STK32B/YANK2 (Homo sapiens, UniProt Q9NY57); conditions: initial screening
T8 construct: purchased Reaction Biology
T8 sequence (Q9NY57 whole entry): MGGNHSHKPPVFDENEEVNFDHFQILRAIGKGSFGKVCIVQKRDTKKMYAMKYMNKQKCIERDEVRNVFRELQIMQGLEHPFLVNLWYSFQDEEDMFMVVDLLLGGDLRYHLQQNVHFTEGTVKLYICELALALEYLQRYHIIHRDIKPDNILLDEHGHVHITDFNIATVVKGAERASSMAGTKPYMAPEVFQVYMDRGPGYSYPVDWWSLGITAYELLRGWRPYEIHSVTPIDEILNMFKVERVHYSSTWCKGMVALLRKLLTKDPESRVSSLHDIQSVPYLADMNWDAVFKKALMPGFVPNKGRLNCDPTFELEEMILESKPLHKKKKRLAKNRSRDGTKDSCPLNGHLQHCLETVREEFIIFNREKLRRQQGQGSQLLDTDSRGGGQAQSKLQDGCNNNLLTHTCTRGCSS
Source text: as §1

FGR = target: T9, FGR (Homo sapiens, UniProt P09769); conditions: initial screening
T9 construct: purchased Reaction Biology
T9 sequence (P09769 whole entry): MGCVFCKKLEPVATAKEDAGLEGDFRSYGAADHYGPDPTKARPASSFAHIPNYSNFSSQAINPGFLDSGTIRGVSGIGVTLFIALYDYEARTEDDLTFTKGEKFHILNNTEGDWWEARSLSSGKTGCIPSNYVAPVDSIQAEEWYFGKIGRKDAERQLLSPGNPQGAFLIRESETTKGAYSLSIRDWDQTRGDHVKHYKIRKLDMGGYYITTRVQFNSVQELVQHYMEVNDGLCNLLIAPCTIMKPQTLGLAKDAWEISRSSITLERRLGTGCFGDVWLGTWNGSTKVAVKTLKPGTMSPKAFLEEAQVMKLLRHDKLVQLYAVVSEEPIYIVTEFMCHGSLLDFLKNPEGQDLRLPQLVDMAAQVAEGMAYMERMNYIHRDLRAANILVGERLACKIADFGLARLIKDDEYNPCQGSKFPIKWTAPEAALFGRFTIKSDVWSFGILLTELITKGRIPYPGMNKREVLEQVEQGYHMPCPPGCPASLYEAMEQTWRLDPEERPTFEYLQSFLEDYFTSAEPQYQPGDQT
Source text: as §1

CAMK1d = target: T10, CAMK1d (Homo sapiens, UniProt Q8IU85); conditions: initial screening
T10 construct: purchased Reaction Biology
T10 sequence (Q8IU85 whole entry): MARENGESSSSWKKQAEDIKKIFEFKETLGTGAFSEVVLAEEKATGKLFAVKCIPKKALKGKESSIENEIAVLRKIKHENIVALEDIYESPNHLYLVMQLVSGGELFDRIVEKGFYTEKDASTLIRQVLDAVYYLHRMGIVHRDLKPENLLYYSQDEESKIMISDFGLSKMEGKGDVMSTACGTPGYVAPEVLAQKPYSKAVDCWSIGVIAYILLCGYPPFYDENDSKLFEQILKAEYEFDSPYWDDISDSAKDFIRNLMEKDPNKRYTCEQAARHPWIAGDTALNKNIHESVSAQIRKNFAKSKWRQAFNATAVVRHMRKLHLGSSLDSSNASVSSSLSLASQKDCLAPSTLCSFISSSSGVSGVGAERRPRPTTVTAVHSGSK
Source text: as §1

c-Kit (D816H) = target: T11, c-Kit (D816H) (Homo sapiens, UniProt P10721, D816H); conditions: initial screening
T11 construct: purchased Reaction Biology
Source text: as §1

PKN1-TECR (Tex1Pex10) = conditions: initial screening
Source text: as §1

CDK7/cyclin H = target: T12, CDK7/cyclin H (Homo sapiens, UniProt P50613); conditions: initial screening
T12 construct: purchased Reaction Biology
T12 sequence (P50613 whole entry): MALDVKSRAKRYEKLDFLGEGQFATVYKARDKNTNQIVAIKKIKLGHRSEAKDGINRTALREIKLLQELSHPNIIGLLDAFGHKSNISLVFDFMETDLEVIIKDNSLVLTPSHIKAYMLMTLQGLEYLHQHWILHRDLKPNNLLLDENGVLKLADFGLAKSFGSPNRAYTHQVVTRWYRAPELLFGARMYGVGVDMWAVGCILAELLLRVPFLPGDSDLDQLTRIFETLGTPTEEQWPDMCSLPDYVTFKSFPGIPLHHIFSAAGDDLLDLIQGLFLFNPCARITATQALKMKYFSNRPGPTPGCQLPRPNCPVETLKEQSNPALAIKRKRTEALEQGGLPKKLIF
T12 sequence (P51946 whole entry partner): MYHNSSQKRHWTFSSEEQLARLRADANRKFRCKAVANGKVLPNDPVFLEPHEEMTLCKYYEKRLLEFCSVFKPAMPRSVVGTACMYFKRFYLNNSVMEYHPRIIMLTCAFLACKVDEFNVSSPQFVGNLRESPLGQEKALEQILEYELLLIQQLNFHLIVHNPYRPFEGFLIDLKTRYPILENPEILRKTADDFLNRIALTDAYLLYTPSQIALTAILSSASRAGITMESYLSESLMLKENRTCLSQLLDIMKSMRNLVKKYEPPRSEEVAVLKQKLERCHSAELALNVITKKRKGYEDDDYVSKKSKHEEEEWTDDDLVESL
T12 sequence (P51948 whole entry partner): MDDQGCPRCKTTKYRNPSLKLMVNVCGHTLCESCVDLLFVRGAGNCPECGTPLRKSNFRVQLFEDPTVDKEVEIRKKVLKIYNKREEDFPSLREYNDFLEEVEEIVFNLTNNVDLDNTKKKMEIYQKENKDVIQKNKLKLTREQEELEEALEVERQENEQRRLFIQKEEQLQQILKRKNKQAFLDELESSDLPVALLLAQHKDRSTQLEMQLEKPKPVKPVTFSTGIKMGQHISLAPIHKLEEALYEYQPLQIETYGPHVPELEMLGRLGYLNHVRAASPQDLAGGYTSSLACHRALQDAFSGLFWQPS
Source text: as §1

CK2a = target: T13, CK2a (Homo sapiens, UniProt P68400); conditions: initial screening
T13 construct: purchased Reaction Biology
T13 sequence (P68400 whole entry): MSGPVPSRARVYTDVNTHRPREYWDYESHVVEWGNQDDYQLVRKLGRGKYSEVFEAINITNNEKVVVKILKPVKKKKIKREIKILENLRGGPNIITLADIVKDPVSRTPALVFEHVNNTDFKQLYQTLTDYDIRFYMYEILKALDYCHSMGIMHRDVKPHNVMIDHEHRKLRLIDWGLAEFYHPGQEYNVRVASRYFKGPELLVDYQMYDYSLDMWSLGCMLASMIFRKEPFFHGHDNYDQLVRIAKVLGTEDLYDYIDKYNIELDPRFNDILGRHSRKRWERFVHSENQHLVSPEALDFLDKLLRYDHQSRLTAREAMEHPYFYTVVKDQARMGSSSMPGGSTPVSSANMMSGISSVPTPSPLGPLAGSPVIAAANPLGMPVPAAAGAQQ
Source text: as §1

LKB1 = target: T14, LKB1 (Homo sapiens, UniProt Q15831); conditions: activity screening, DOH at 50 μM
T14 construct: purchased Reaction Biology (Malvern, PA)
Source text: as §1

ALK-TFG = conditions: initial screening
Source text: as §1

[1] = DOH (50 µM), Data 1 and Data 2, read-out: % Enzyme Activity (relative to DMSO controls)

With `CC1(C)Oc2cc3oc(=O)ccc3cc2C[C@@H]1O` [DOH, decursinol] as the compound, how does the inhibition at 50 µM (JNK2; DOH 50 µM) read?
The inhibition at 50 µM was 29%.

And the “% Enzyme Activity (relative to DMSO controls)” value (JNK2; DOH (50 µM), Data 1 and Data 2)?
The value was 70.1%.

And the remaining activity at 50 µM (JNK2; [1])?
The remaining activity at 50 µM was 72%.

What about the inhibition at 50 µM (LRRK2 (G2019S); DOH 50 µM) of the same compound?
The inhibition at 50 µM was 26.8%.

What about the “% Enzyme Activity (relative to DMSO controls)” value (LRRK2 (G2019S); DOH (50 µM), Data 1 and Data 2) of the same compound?
Its value is 73.0%.

What about the remaining activity at 50 µM (LRRK2 (G2019S); [1]) of the same compound?
The remaining activity at 50 µM was 73.4%.

What about the inhibition at 50 µM (BRSK1; DOH 50 µM) of the same compound?
The inhibition at 50 µM was 29.7%.

What about the “% Enzyme Activity (relative to DMSO controls)” value (BRSK1; DOH (50 µM), Data 1 and Data 2) of the same compound?
The value was 69.5%.

What about the remaining activity at 50 µM (BRSK1; [1]) of the same compound?
Its remaining activity at 50 µM is 71.1%.

And the inhibition at 50 µM (MELK; DOH 50 µM)?
The inhibition at 50 µM was 35.2%.

What about the “% Enzyme Activity (relative to DMSO controls)” value (MELK; DOH (50 µM), Data 1 and Data 2) of the same compound?
The value was 64.6%.

What about the remaining activity at 50 µM (MELK; [1]) of the same compound?
The remaining activity at 50 µM was 65%.

What about the inhibition at 50 µM (TYK2; DOH 50 µM) of the same compound?
The inhibition at 50 µM was 32.4%.

What about the “% Enzyme Activity (relative to DMSO controls)” value (TYK2; DOH (50 µM), Data 1 and Data 2) of the same compound?
The value was 62.8%.

And the remaining activity at 50 µM (TYK2; [1])?
The remaining activity at 50 µM was 72.3%.

And the inhibition at 50 µM (ARK5/NUAK1; DOH 50 µM)?
Its inhibition at 50 µM is 27.4%.

And the “% Enzyme Activity (relative to DMSO controls)” value (ARK5/NUAK1; DOH (50 µM), Data 1 and Data 2)?
The value was 72.5%.

And the remaining activity at 50 µM (ARK5/NUAK1; [1])?
Its remaining activity at 50 µM is 72.6%.

And the inhibition at 50 µM (PKCtheta; DOH 50 µM)?
Its inhibition at 50 µM is 30.1%.

And the “% Enzyme Activity (relative to DMSO controls)” value (PKCtheta; DOH (50 µM), Data 1 and Data 2)?
The value was 69.2%.

What about the remaining activity at 50 µM (PKCtheta; [1]) of the same compound?
The remaining activity at 50 µM was 70.5%.

And the inhibition at 50 µM (STK32B/YANK2; DOH 50 µM)?
The inhibition at 50 µM was 31.1%.

And the “% Enzyme Activity (relative to DMSO controls)” value (STK32B/YANK2; DOH (50 µM), Data 1 and Data 2)?
Its value is 67.4%.

And the remaining activity at 50 µM (STK32B/YANK2; [1])?
Its remaining activity at 50 µM is 70.3%.

What about the inhibition at 50 µM (FGR; DOH 50 µM) of the same compound?
The inhibition at 50 µM was 34.8%.

What about the “% Enzyme Activity (relative to DMSO controls)” value (FGR; DOH (50 µM), Data 1 and Data 2) of the same compound?
The value was 64.8%.

And the remaining activity at 50 µM (FGR; [1])?
The remaining activity at 50 µM was 65.6%.

What about the inhibition at 50 µM (CAMK1d; DOH 50 µM) of the same compound?
Its inhibition at 50 µM is 27.1%.

And the “% Enzyme Activity (relative to DMSO controls)” value (CAMK1d; DOH (50 µM), Data 1 and Data 2)?
Its value is 70.6%.

And the remaining activity at 50 µM (CAMK1d; [1])?
Its remaining activity at 50 µM is 75.3%.

What about the inhibition at 50 µM (c-Kit (D816H); DOH 50 µM) of the same compound?
Its inhibition at 50 µM is 25.5%.

And the “% Enzyme Activity (relative to DMSO controls)” value (c-Kit (D816H); DOH (50 µM), Data 1 and Data 2)?
The value was 66.8%.

What about the remaining activity at 50 µM (c-Kit (D816H); [1]) of the same compound?
The remaining activity at 50 µM was 82.2%.

What about the “DOH % Inhibition” value (PKN1-TECR (Tex1Pex10); DOH 50 µM) of the same compound?
The value was 27.6%.

And the “% Enzyme Activity (relative to DMSO controls)” value (PKN1-TECR (Tex1Pex10); DOH (50 µM), Data 1 and Data 2)?
Its value is 72.6% and 72.4%.

And the inhibition at 50 µM (CDK7/cyclin H; DOH 50 µM)?
Its inhibition at 50 µM is 25.7%.

What about the “% Enzyme Activity (relative to DMSO controls)” value (CDK7/cyclin H; DOH (50 µM), Data 1 and Data 2) of the same compound?
The value was 73.9%.

And the remaining activity at 50 µM (CDK7/cyclin H; [1])?
Its remaining activity at 50 µM is 74.8%.

And the inhibition at 50 µM (CK2a; DOH 50 µM)?
The inhibition at 50 µM was 33%.

What about the “% Enzyme Activity (relative to DMSO controls)” value (CK2a; DOH (50 µM), Data 1 and Data 2) of the same compound?
The value was 66.2%.

And the remaining activity at 50 µM (CK2a; [1])?
Its remaining activity at 50 µM is 67.8%.

And the “inhibition of kinase activity” value (LKB1)?
The value was “no inhibition”.

What about the “DOH % Inhibition” value (ALK-TFG; DOH 50 µM) of the same compound?
Its value is 27.9%.

And the “% Enzyme Activity (relative to DMSO controls)” value (ALK-TFG; DOH (50 µM), Data 1 and Data 2)?
Its value is 75.7% and 68.5%.
